Results: US12594276B2, “Inhibitors of human immunodeficiency virus replication” (ViiV Healthcare UK (No.5) Limited, priority 2024, dated 2026)
Where two headings read alike, the source gives them in different places.

Columns and labels:
[1] = tested on: recombinant NL4-3 virus (nef section replaced with Renilla luciferase gene) in MT-2 cells; experiment: HIV cell culture assay (antiviral activity, luciferase readout); type: cell-based; settings: Renilla, NL43, MT-2 cells infected for 4-5 days with recombinant NL4-3 Renilla luciferase virus
Summary of the method: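 Antiviral EC50 derived from luciferase signal using the exponential median effect equation. Infection of MT-2 cells ran 4-5 days alongside serial dilutions of compound, with virus generated by proviral clone transfection of 293T cells.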

[2] = Compound cytotoxicity, XTT-based colorimetric assay; type: cell-based; settings: human
Summary of the method: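 CC50 derived from XTT colorimetric signal measured on day 4 in MT2 cells that were not infected. All other steps followed the antiviral assay protocol.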

[3] = uninfected MT2 cells, day 4, XTT, read-out: CC50

| Compound | EC50 [1] [nM] | CC50 at 4 days [2, 3] [nM] | CC50 at 4 days [2] [nM] |
| --- | --- | --- | --- |
| CS(=O)(=O)Nc1nn(CCN2CCOC3(CC3)C2)c2c(-n3c([C@H](Cc4cc(F)cc(F)c4)NC(=O)Cn4nc(C(F)F)c5c4C(F)(F)[C@@H]4C[C@H]54)nc4nc(C5CCC(F)(F)CC5)ccc4c3=O)ccc(Cl)c12 (atropisomer, axis not shown; (P)) [Example 176, N-[(1S)-1-[(3P)-3-[4-chloro-3-methanesulfonamido-1-(2-{4-oxa-7-azaspiro[2.5]octan-7-yl}ethyl)-1H-indazol-7-yl]-7-(4,4-difluorocyclohexyl)-4-oxo-3H,4H-pyrido[2,3-d]pyrimidin-2-yl]-2-(3,5-difluorophenyl)ethyl]-2-[(2S,4R)-9-(difluoromethyl)-5,5-difluoro-7,8-diazatricyclo[4.3.0.0^2,^4]nona-1(6),8-dien-7-yl]acetamide] | 0.018 | > 50 |  |
| Cc1cc(C2CCC(F)(F)CC2)nc2nc([C@H](Cc3cc(F)cc(F)c3)NC(=O)Cn3nc(C4CC4)c4c3C[C@@H]3C[C@H]43)n(-c3ccc(Cl)c4c(NS(C)(=O)=O)nn(CCNC5COC5)c34)c(=O)c12 (atropisomer, axis not shown; (P)) [Example 279, N-[(1S)-1-[(3P)-3-(4-chloro-3-methanesulfonamido-1-{2-[(oxetan-3-yl)amino]ethyl}-1H-indazol-7-yl)-7-(4,4-difluorocyclohexyl)-5-methyl-4-oxo-3H,4H-pyrido[2,3-d]pyrimidin-2-yl]-2-(3,5-difluorophenyl)ethyl]-2-[(2S,4S)-9-cyclopropyl-7,8-diazatricyclo[4.3.0.0^2,^4]nona-1(6),8-dien-7-yl]acetamide] | 0.036 | > 50 |  |
| Cc1cc(C2(F)CCC(F)(F)CC2)nc2nc([C@H](Cc3cc(F)cc(F)c3)NC(=O)Cn3nc(C4CC4)c4c3C[C@@H]3C[C@H]43)n(-c3ccc(Cl)c4c(NS(C)(=O)=O)nn(CCN5C[C@@H](C)OC(C)(C)C5)c34)c(=O)c12 (atropisomer, axis not shown; (P)) [Example 584, N-[(1S)-1-[(3P)-3-(4-chloro-3-methanesulfonamido-1-{2-[(6R)-2,2,6-trimethylmorpholin-4-yl]ethyl}-1H-indazol-7-yl)-5-methyl-4-oxo-7-(1,4,4-trifluorocyclohexyl)-3H,4H-pyrido[2,3-d]pyrimidin-2-yl]-2-(3,5-difluorophenyl)ethyl]-2-[(2S,4S)-9-cyclopropyl-7,8-diazatricyclo[4.3.0.0^2,^4]nona-1(6),8-dien-7-yl]acetamide] | 0.015 | > 20 |  |
| COCCCn1nc(NS(C)(=O)=O)c2c(Cl)ccc(-n3c([C@H](Cc4cc(F)cc(F)c4)NC(=O)Cn4nc(C(F)F)c5c4C(F)(F)[C@@H]4C[C@H]54)nc4nc(C5CCC(F)(F)CC5)ccc4c3=O)c21 (atropisomer, axis not shown; (P)) [Example 623, N-[(1S)-1-[(3P)-3-[4-chloro-3-methanesulfonamido-1-(3-methoxypropyl)-1H-indazol-7-yl]-7-(4,4-difluorocyclohexyl)-4-oxo-3H,4H-pyrido[2,3-d]pyrimidin-2-yl]-2-(3,5-difluorophenyl)ethyl]-2-[(2S,4R)-9-(difluoromethyl)-5,5-difluoro-7,8-diazatricyclo[4.3.0.0^2,^4]nona-1(6),8-dien-7-yl]acetamide] | 0.012 | > 100 |  |
| Cc1cc(C2(F)CCC(F)(F)CC2)nc2nc([C@H](Cc3cc(F)cc(F)c3)NC(=O)Cn3nc(C4CC4)c4c3C[C@@H]3C[C@H]43)n(-c3ccc(Cl)c4c(NS(C)(=O)=O)nn([C@@H](C)CN5C[C@@H](C)O[C@@H](C)C5)c34)c(=O)c12 (relative stereo) [Example 748, N-[(1S)-1-[(3P)-3-{4-chloro-1-[(2S)-1-[(2R,6S)-2,6-dimethylmorpholin-4-yl]propan-2-yl]-3-methanesulfonamido-1H-indazol-7-yl}-5-methyl-4-oxo-7-(1,4,4-trifluorocyclohexyl)-3H,4H-pyrido[2,3-d]pyrimidin-2-yl]-2-(3,5-difluorophenyl)ethyl]-2-[(2R*,4R*)-9-cyclopropyl-7,8-diazatricyclo[4.3.0.0^2,^4]nona-1(6),8-dien-7-yl]acetamide] | 0.024 | > 20 |  |
| COCCNCCn1nc(NS(C)(=O)=O)c2c(Cl)ccc(-n3c([C@H](Cc4cc(F)cc(F)c4)NC(=O)Cn4nc(C5CC5)c5c4C[C@@H]4C[C@H]54)nc4nc(C5CCC(F)(F)CC5)cc(C)c4c3=O)c21 (atropisomer, axis not shown; (P)) [Example 10, N-[(1S)-1-[(3P)-3-(4-chloro-3-methanesulfonamido-1-{2-[(2-methoxyethyl)amino]ethyl}-1H-indazol-7-yl)-7-(4,4-difluorocyclohexyl)-5-methyl-4-oxo-3H,4H-pyrido[2,3-d]pyrimidin-2-yl]-2-(3,5-difluorophenyl)ethyl]-2-[(2S,4S)-9-cyclopropyl-7,8-diazatricyclo[4.3.0.0^2,^4]nona-1(6),8-dien-7-yl]acetamide] | 0.06 | > 50 |  |
| CCc1cc(C2CCC(F)(F)CC2)nc2nc([C@H](Cc3cc(F)cc(F)c3)NC(=O)Cn3nc(C(F)F)c4c3C(F)(F)[C@@H]3C[C@H]43)n(-c3ccc(Cl)c4c(NS(C)(=O)=O)nn(CCOC)c34)c(=O)c12 (atropisomer, axis not shown; (P)) [Example 632, N-[(1S)-1-[(3P)-3-[4-chloro-3-methanesulfonamido-1-(2-methoxyethyl)-1H-indazol-7-yl]-7-(4,4-difluorocyclohexyl)-5-ethyl-4-oxo-3H,4H-pyrido[2,3-d]pyrimidin-2-yl]-2-(3,5-difluorophenyl)ethyl]-2-[(2S,4R)-9-(difluoromethyl)-5,5-difluoro-7,8-diazatricyclo[4.3.0.0^2,^4]nona-1(6),8-dien-7-yl]acetamide] | 0.021 | > 50 |  |
| Cc1cc(C2CCC(F)(F)CC2)nc2nc([C@H](Cc3cc(F)cc(F)c3)NC(=O)Cn3nc(C(F)F)c4c3C(F)(F)[C@@H]3C[C@H]43)n(-c3ccc(Cl)c4c(NS(C)(=O)=O)nn(CCN5CCC(F)CC5)c34)c(=O)c12 (atropisomer, axis not shown; (P)) [Example 270, N-[(1S)-1-[(3P)-3-{4-chloro-1-[2-(4-fluoropiperidin-1-yl)ethyl]-3-methanesulfonamido-1H-indazol-7-yl}-7-(4,4-difluorocyclohexyl)-5-methyl-4-oxo-3H,4H-pyrido[2,3-d]pyrimidin-2-yl]-2-(3,5-difluorophenyl)ethyl]-2-[(2S,4R)-9-(difluoromethyl)-5,5-difluoro-7,8-diazatricyclo[4.3.0.0^2,^4]nona-1(6),8-dien-7-yl]acetamide] | 0.011 | > 50 |  |
| Cc1cc(C2CCC(F)(F)CC2)nc2nc([C@H](Cc3cc(F)cc(F)c3)NC(=O)Cn3nc(C4CC4)c4c3C[C@@H]3C[C@H]43)n(-c3ccc(Cl)c4c(NS(C)(=O)=O)nn(CCN5CCOCC5)c34)c(=O)c12 (atropisomer, axis not shown; (P)) [Example 114, N-[(1S)-1-[(3P)-3-{4-chloro-3-methanesulfonamido-1-[2-(morpholin-4-yl)ethyl]-1H-indazol-7-yl}-7-(4,4-difluorocyclohexyl)-5-methyl-4-oxo-3H,4H-pyrido[2,3-d]pyrimidin-2-yl]-2-(3,5-difluorophenyl)ethyl]-2-[(2S,4S)-9-cyclopropyl-7,8-diazatricyclo[4.3.0.0^2,^4]nona-1(6),8-dien-7-yl]acetamide] | 0.013 | > 50 |  |
| Cc1cc(C2(F)CCC(F)(F)CC2)nc2nc([C@H](Cc3cc(F)cc(F)c3)NC(=O)Cn3nc(C4CC4)c4c3C[C@@H]3C[C@H]43)n(-c3ccc(Cl)c4c(NS(C)(=O)=O)nn(CCN5[C@@H]6CC[C@H]5COC6)c34)c(=O)c12 (atropisomer, axis not shown; (P)) [Example 593, N-[(1S)-1-[(3P)-3-(4-chloro-3-methanesulfonamido-1-{2-[(1R,5S)-3-oxa-8-azabicyclo[3.2.1]octan-8-yl]ethyl}-1H-indazol-7-yl)-5-methyl-4-oxo-7-(1,4,4-trifluorocyclohexyl)-3H,4H-pyrido[2,3-d]pyrimidin-2-yl]-2-(3,5-difluorophenyl)ethyl]-2-[(2S,4S)-9-cyclopropyl-7,8-diazatricyclo[4.3.0.0^2,^4]nona-1(6),8-dien-7-yl]acetamide] | 0.017 |  | > 20 |
| Cc1cc(C2(F)CCC(F)(F)CC2)nc2nc([C@H](Cc3cc(F)cc(F)c3)NC(=O)Cn3nc(C(F)F)c4c3C[C@@H]3C[C@H]43)n(-c3ccc(Cl)c4c(NS(C)(=O)=O)nn(CCN5C[C@@H](C)O[C@@H](C)C5)c34)c(=O)c12 (atropisomer, axis not shown; (P)) [Example 596, N-[(1S)-1-[(3P)-3-(4-chloro-1-{2-[(2R,6S)-2,6-dimethylmorpholin-4-yl]ethyl}-3-methanesulfonamido-1H-indazol-7-yl)-5-methyl-4-oxo-7-(1,4,4-trifluorocyclohexyl)-3H,4H-pyrido[2,3-d]pyrimidin-2-yl]-2-(3,5-difluorophenyl)ethyl]-2-[(2S,4S)-9-(difluoromethyl)-7,8-diazatricyclo[4.3.0.0^2,^4]nona-1(6),8-dien-7-yl]acetamide] | 0.029 | > 20 |  |
| CCc1cc(C2CCC(F)(F)CC2)nc2nc([C@H](Cc3cc(F)cc(F)c3)NC(=O)Cn3nc(C(F)F)c4c3C(F)(F)[C@@H]3C[C@H]43)n(-c3ccc(Cl)c4c(NS(C)(=O)=O)nn(CCCOC)c34)c(=O)c12 (atropisomer, axis not shown; (P)) [Example 638, N-[(1S)-1-[(3P)-3-[4-chloro-3-methanesulfonamido-1-(3-methoxypropyl)-1H-indazol-7-yl]-7-(4,4-difluorocyclohexyl)-5-ethyl-4-oxo-3H,4H-pyrido[2,3-d]pyrimidin-2-yl]-2-(3,5-difluorophenyl)ethyl]-2-[(2S,4R)-9-(difluoromethyl)-5,5-difluoro-7,8-diazatricyclo[4.3.0.0^2,^4]nona-1(6),8-dien-7-yl]acetamide] | 0.018 | > 50 |  |
